# Experimental data taken from ChEMBL document CHEMBL3885881, “DrugMatrix”.
# Species on record: Rattus norvegicus
# Experiment: DrugMatrix - Regimen: Daily Repeat
# Format: toxicity, organism-based, Sprague-Dawley
# Set-up: regimen Daily Repeat, gender Male, age 6-8 weeks
# Details: in vivo, po, route oral GAVAGE, […]; for ABSOLUTE BASOPHIL / ABSOLUTE EOSINOPHIL / ABSOLUTE LYMPHOCYTE / ABSOLUTE MONOCYTE / ABSOLUTE SEGMENTED NEUTROPHIL / BASOPHIL / EOSINOPHIL / ERYTHROCYTE COUNT / HEMATOCRIT / HEMOGLOBIN / LEUKOCYTE COUNT / LYMPHOCYTE / MEAN CORPUSCULAR HEMOGLOBIN / MEAN CORPUSCULAR HEMOGLOBIN CONCENTRATION / MEAN CORPUSCULAR VOLUME / MONOCYTE / NEUTROPHIL / NUCLEATED RED BLOOD CELLS / PLATELET COUNT: tissue Blood; for ALANINE AMINOTRANSFERASE / ALBUMIN / ALKALINE PHOSPHATASE / ASPARTATE AMINOTRANSFERASE / BLOOD UREA NITROGEN / CARBON DIOXIDE / CHLORIDE / CHOLESTEROL / CREATINE PHOSPHOKINASE / CREATININE / GLUCOSE / LACTATE DEHYDROGENASE / LIPASE / PHOSPHORUS / POTASSIUM / SODIUM / TOTAL BILIRUBIN / TOTAL PROTEIN / URIC ACID: tissue Plasma
# [1] = 30 mg/kg, 120 h, dose level Low, time 5 day
# [2] = 1000 mg/kg, 72 h, dose level High, time 3 day
# [3] = 1000 mg/kg, 120 h, dose level High, time 5 day
smiles,measurement,setting,value
CCCCC(=O)N(Cc1ccc(-c2ccccc2-c2nnn[nH]2)cc1)[C@H](C(=O)O)C(C)C,ABSOLUTE BASOPHIL,[1],0 CELLS/uL
same,ABSOLUTE EOSINOPHIL,[1],0 CELLS/uL
same,ABSOLUTE LYMPHOCYTE,[1],14863.33 CELLS/uL
same,ABSOLUTE MONOCYTE,[1],58.33 CELLS/uL
same,ABSOLUTE SEGMENTED NEUTROPHIL,[1],1411.67 CELLS/uL
same,BASOPHIL,[1],0%
same,EOSINOPHIL,[1],0%
same,ERYTHROCYTE COUNT,[1],5.54 x10E6/uL
same,HEMATOCRIT,[1],34.23%
same,HEMOGLOBIN,[1],13.5 G/DL
same,LEUKOCYTE COUNT,[1],16.33 x10E3/uL
same,LYMPHOCYTE,[1],91%
same,MEAN CORPUSCULAR HEMOGLOBIN,[1],24.4 pg
same,MEAN CORPUSCULAR HEMOGLOBIN CONCENTRATION,[1],39.43 G/DL
same,MEAN CORPUSCULAR VOLUME,[1],61.87 fL
same,MONOCYTE,[1],0.33%
same,NEUTROPHIL,[1],8.67%
same,NUCLEATED RED BLOOD CELLS,[1],0 /100WBC
same,PLATELET COUNT,[1],1196 x10E3/uL
same,ALANINE AMINOTRANSFERASE,[1],63.67 u/L
same,ALBUMIN,[1],4.07 G/DL
same,ALKALINE PHOSPHATASE,[1],455.33 u/L
same,ASPARTATE AMINOTRANSFERASE,[1],87.33 u/L
same,BLOOD UREA NITROGEN,[1],15.67 mg/dL
same,CARBON DIOXIDE,[1],23.33 mmol/L
same,CHLORIDE,[1],102.33 MEQ/L
same,CHOLESTEROL,[1],63 mg/dL
same,CREATINE PHOSPHOKINASE,[1],339 u/L
same,CREATININE,[1],0.18 mg/dL
same,GLUCOSE,[1],206.33 mg/dL
same,LACTATE DEHYDROGENASE,[1],183 u/L
same,LIPASE,[1],9.33 u/L
same,PHOSPHORUS,[1],12.9 mg/dL
same,POTASSIUM,[1],6.08 MEQ/L
same,SODIUM,[1],140.77 MEQ/L
same,TOTAL BILIRUBIN,[1],0.13 mg/dL
same,TOTAL PROTEIN,[1],5.6 G/DL
same,URIC ACID,[1],2.2 mg/dL
same,ABSOLUTE BASOPHIL,[2],0 CELLS/uL
same,ABSOLUTE EOSINOPHIL,[2],0 CELLS/uL
same,ABSOLUTE LYMPHOCYTE,[2],6741.67 CELLS/uL
same,ABSOLUTE MONOCYTE,[2],52 CELLS/uL
same,ABSOLUTE SEGMENTED NEUTROPHIL,[2],673 CELLS/uL
same,BASOPHIL,[2],0%
same,EOSINOPHIL,[2],0%
same,ERYTHROCYTE COUNT,[2],5.05 x10E6/uL
same,HEMATOCRIT,[2],31%
same,HEMOGLOBIN,[2],12.27 G/DL
same,LEUKOCYTE COUNT,[2],7.47 x10E3/uL
same,LYMPHOCYTE,[2],90.67%
same,MEAN CORPUSCULAR HEMOGLOBIN,[2],24.33 pg
same,MEAN CORPUSCULAR HEMOGLOBIN CONCENTRATION,[2],39.6 G/DL
same,MEAN CORPUSCULAR VOLUME,[2],61.43 fL
same,MONOCYTE,[2],0.67%
same,NEUTROPHIL,[2],8.67%
same,NUCLEATED RED BLOOD CELLS,[2],0 /100WBC
same,PLATELET COUNT,[2],1278.67 x10E3/uL
same,ALANINE AMINOTRANSFERASE,[2],56.67 u/L
same,ALBUMIN,[2],3.8 G/DL
same,ALKALINE PHOSPHATASE,[2],381.67 u/L
same,ASPARTATE AMINOTRANSFERASE,[2],79.67 u/L
same,BLOOD UREA NITROGEN,[2],47.33 mg/dL
same,CARBON DIOXIDE,[2],23 mmol/L
same,CHLORIDE,[2],100.67 MEQ/L
same,CHOLESTEROL,[2],69.33 mg/dL
same,CREATINE PHOSPHOKINASE,[2],401 u/L
same,CREATININE,[2],0.56 mg/dL
same,GLUCOSE,[2],149 mg/dL
same,LACTATE DEHYDROGENASE,[2],105.67 u/L
same,LIPASE,[2],10 u/L
same,PHOSPHORUS,[2],9.53 mg/dL
same,POTASSIUM,[2],7.33 MEQ/L
same,SODIUM,[2],138.9 MEQ/L
same,TOTAL BILIRUBIN,[2],0.2 mg/dL
same,TOTAL PROTEIN,[2],5.27 G/DL
same,URIC ACID,[2],1.17 mg/dL
same,ABSOLUTE BASOPHIL,[3],0 CELLS/uL
same,ABSOLUTE EOSINOPHIL,[3],82 CELLS/uL
same,ABSOLUTE LYMPHOCYTE,[3],18525.33 CELLS/uL
same,ABSOLUTE MONOCYTE,[3],112.67 CELLS/uL
same,ABSOLUTE SEGMENTED NEUTROPHIL,[3],746.67 CELLS/uL
same,BASOPHIL,[3],0%
same,EOSINOPHIL,[3],0.33%
same,ERYTHROCYTE COUNT,[3],5.79 x10E6/uL
same,HEMATOCRIT,[3],35.4%
same,HEMOGLOBIN,[3],13.73 G/DL
same,LEUKOCYTE COUNT,[3],19.47 x10E3/uL
same,LYMPHOCYTE,[3],95%
same,MEAN CORPUSCULAR HEMOGLOBIN,[3],23.7 pg
same,MEAN CORPUSCULAR HEMOGLOBIN CONCENTRATION,[3],38.8 G/DL
same,MEAN CORPUSCULAR VOLUME,[3],61.13 fL
same,MONOCYTE,[3],0.67%
same,NEUTROPHIL,[3],4%
same,NUCLEATED RED BLOOD CELLS,[3],0 /100WBC
same,PLATELET COUNT,[3],1264 x10E3/uL
same,ALANINE AMINOTRANSFERASE,[3],55.33 u/L
same,ALBUMIN,[3],4.03 G/DL
same,ALKALINE PHOSPHATASE,[3],436 u/L
same,ASPARTATE AMINOTRANSFERASE,[3],82.33 u/L
same,BLOOD UREA NITROGEN,[3],56 mg/dL
same,CARBON DIOXIDE,[3],23.33 mmol/L
same,CHLORIDE,[3],105 MEQ/L
same,CHOLESTEROL,[3],70.67 mg/dL
same,CREATINE PHOSPHOKINASE,[3],365 u/L
same,CREATININE,[3],0.42 mg/dL
same,GLUCOSE,[3],175.33 mg/dL
same,LACTATE DEHYDROGENASE,[3],181.67 u/L
same,LIPASE,[3],10.33 u/L
same,PHOSPHORUS,[3],11.47 mg/dL
same,POTASSIUM,[3],7.6 MEQ/L
same,SODIUM,[3],140.73 MEQ/L
same,TOTAL BILIRUBIN,[3],0.17 mg/dL
same,TOTAL PROTEIN,[3],5.87 G/DL
same,URIC ACID,[3],1.6 mg/dL
